Measured values from patent US7939110B2, “Composition and method for treating autoimmune disease and mucosal disorder” (National Yang-Ming University, priority 2005, dated 2011).

Experiments:
C57BL/6j mice [1] = assay: Ovalbumin-specific IgG in serum, oral tolerance model; format: in vivo
Protocol: Since it is well-known that animals can be immunized by ovalbumin (OVA) to establish the animal model for the autoimmune disease (The Journal of Pharmacology and Experimental Therapeutics 288:849-857, 1999), the present invention establishes an animal model which includes mice with OVA-induced autoimmune disease, and the mice are treated with DeCaPS to enhance oral tolerance. C57/BL6j mice ([…]) were orally treated with 0.5 mg/ml ovalbumin (OVA) in drinking water at day 4 and day 5, and DeCaPS was administrated to the C57/BL6j mice as an adjuvant at dosages of 10 mg/kg/day, 40 mg/kg/day and 160 mg/kg/day at days 3-7. 50 μg of OVA with Complete Freund's Adjuvant (CFA) was administrated to the mice as an antigen via i.p. injection at day 8 and with OVA on day 24. OVA-specific IgG and IgM in the blood was collected at day 22 and day 30. The mice were sacrificed at day 32 to collect an intestinal lavage solution of the intestinal mucosa and the lung mucosa to detect IgA in response to OVA. The detailed experimental procedures are illustrated in the following table II. […]

C57BL/6j mice [2] = assay: Ovalbumin-specific IgM in serum, oral tolerance model; format: in vivo
Protocol: Since it is well-known that animals can be immunized by ovalbumin (OVA) to establish the animal model for the autoimmune disease (The Journal of Pharmacology and Experimental Therapeutics 288:849-857, 1999), the present invention establishes an animal model which includes mice with OVA-induced autoimmune disease, and the mice are treated with DeCaPS to enhance oral tolerance. […] 50 μg of OVA with Complete Freund's Adjuvant (CFA) was administrated to the mice as an antigen via i.p. injection at day 8 and with OVA on day 24. OVA-specific IgG and IgM in the blood was collected at day 22 and day 30. The mice were sacrificed at day 32 to collect an intestinal lavage solution of the intestinal mucosa and the lung mucosa to detect IgA in response to OVA. The detailed experimental procedures are illustrated in the following table II.
With comparison to the IgM antibody level expressed in the control group at day 22, the IgM antibody level expressed in the normal group was decreased by about 49% (p<0.05), the IgM antibody level-expressed in the positive control group was suppressed by about 87% (p<0.05), the IgM antibody level-expressed in the DC-1 group was suppressed by about 46% (p<0.02), the IgM antibody level-expressed in the DC-2 group was suppressed by about 88% (p<0.001), and the IgM antibody level in the DC-3 group was suppressed by about 86% (p<0.001). […]

[3] = day 22, positive control group (oral OVA days 1-5, no DeCaPS)
[4] = day 30, positive control group (oral OVA days 1-5, no DeCaPS)

ovalbumin [ovalbumin antigen]
IgG antibody level suppressed vs control group (C57BL/6j mice [1]; [3]): about 94%
IgG antibody level suppressed vs control group (C57BL/6j mice [1]; [4]): about 75%
IgM antibody level suppressed vs control group (C57BL/6j mice [2]; [3]): about 87%
IgM antibody level suppressed vs control group (C57BL/6j mice [2]; [4]): about 72%
